Data set [1] is described as follows: Quantification of GBCAs in mouse urine by luminescence assay. It is filed as in vivo, Swiss Webster mice. As to conditions: for [GBCA] in assay solution: mouse urine 2 h after injection, diluted in MES buffer; for [GBCA] in original sample: mouse urine collected 2 h after injection; for GBCA concentration in mouse urine, Luminescence assay: urine collected 2 h after i.v. injection, 0.3 mmol/kg. On the procedure: (§1) Finally, the luminescence assay by quantifying GBCAs in mouse urine samples is validated. The three GBCAs are intravenously injected (four mice per group), and urine is collected 2 h after injection, as mice excrete the contrast agents more quickly than humans do.^41 Due to the different composition between mouse and human urine,^42 calibration curves (FIG. 7) are performed by spiking GBCA standards into urine from control mice rather than into synthetic human urine. Table 4 reports the assay response to the mouse urine samples, and Table 3 compares the GBCA concentrations quantified by the assay versus inductively coupled plasma optical emission spectrometry (ICP-OES), which is one of the gold standard techniques for gadolinium quantification.^43 The assay provided values that are very similar to those of ICP-OES, with only slightly higher standard deviations.
(§2) The protocol used in the animal studies is reviewed and approved by the Institutional Animal Care and Use Committee of Lawrence Berkeley National Laboratory, and is performed in AAALAC-accredited facilities according to prescribed guidelines and regulations. The animals are young adult (78 days old) female (33.0±1.4 g) Swiss Webster mice (Simonsen Laboratories, Gilroy, Calif., USA). Mice are kept under a 12 h light cycle with controlled temperature (21-24° C.) and relative humidity (30-70%), and are given water and food ad libitum. Each group is housed together in a plastic stock cage lined with a 0.5 cm layer of highly absorbent low-ash pelleted cellulose bedding (ALPHA-dri). Groups of four mice are injected intravenously into a warmed lateral tail vein with a single dose of GBCA (0.3 mmol/kg mouse) or bacteriostatic 0.9 bio sodium chloride solution (control group), and urine is collected after 2 h through bladder massage method. Finally, euthanasia is performed under isotiurane anesthesia.
Because the GBCA concentration in mouse urine is very high at early excretion times, the samples are diluted in buffer as described: 1 μL mouse urine samples are mixed with […] MES solutions (final concentration 50 mM, pH 6.0). 4 μL 3,4,3-LI(1,2-HOPO) (1 mM) are added to each solution, mixed for 10 s, and left to incubate at room temperature, without stirring for 10 min. 4 μL EuCl3 (1 mM) are added, mixed for 10 s and left undisturbed for 10 min before recording emission spectra from 500 to 700 nm under 315 nm excitation with a SpectraMax iD3 Multi-Mode Microplate Reader. For calibration curve preparation, GBCA standard solutions are spiked into urine of control mice. The resulting solutions are quantified as previously described in this paragraph.

The nature of data set [2]: Quantification of GBCAs in mouse urine by ICP-OES. It is filed as in vivo, Swiss Webster mice. As to conditions: urine collected 2 h after i.v. injection, 0.3 mmol/kg. Here is the method: as §1
as §2, with “Groups of four mice are injected intravenously into a warmed lateral tail vein with a single dose of GBCA (0.3 mmol/kg mouse) or bacteriostatic 0.9 bio sodium chloride solution (control group), and urine is collected after 2 h through bladder massage method. Finally, euthanasia is performed under isotiurane anesthesia.” left out
To quantify the concentrations of the GBCA in mouse urine by ICP-OES, 50 μL of commercial stock solutions are digested in 100 μL of nitric acid (70%) and 100 μL of hydrogen chloride (6 N) for 3 h at 60 ° C. and re-dispersed in 4.75 mL of Milli-Q water. The final concentration of gadolinium in solution is quantified on a Perkin Elmer 5300 DV optical emission ICP with auto sampler at the Inductively Coupled Plasma Spectroscopy Facility of the University of California, Berkeley. […]

The nature of data set [3]: Selectivity of the Eu3+-3,4,3-LI(1,2-HOPO) probe: optical response to Gd3+ and interfering cations. It is filed as physicochemical. As to conditions: 50 μM cation; emission at 620 nm, 315 nm excitation.
Method: The optical response (FIG. 2b) of the Eu^3+-3,4,3-LI(1,2-HOPO) complex to Gd^3+ ions and several potential interfering cations is examined.
2 μL 3,4,3-LI(1,2-HOPO) (1 mM) are added to various solutions containing 50 μM of Gd^3+, Na^+, K^+, Ca^2+ or Mg^2+, mixed for 10 s, and left to incubate at room temperature, without stirring for 10 min. 2 μL EuCl3 (1 mM) are added to the solutions, mixed for 10 s, and left undisturbed for 10 min before recording emission spectra from 500 to 700 nm, under 315 nm excitation with a SpectraMax iD3 Multi-Mode Microplate Reader.
Data set [4] is described as follows: Effect of urine on Eu3+-3,4,3-LI(1,2-HOPO) emission / stability in urine. It is filed as physicochemical. On the procedure: Urine is a complex matrix comprised of salts and metabolism by-products, which can potentially affect assay response. […] Although the average pH of human urine is 6.0, there is a strong variation among individuals.^37 Therefore, the following in vitro experiments are performed with urine at 50% dilution with […] buffer (50 mM, pH 6.0) to fix the acidity of the solution, preventing potential variations in the assay response due to sample pH, and 10 min incubation times, which had been optimized in preliminary experiments.
2 μL 3,4,3-LI(1,2-HOPO) (1 mM) and EuCl3 (1 mM) are added to a water solution, mixed for 10 s, and left to incubate at room temperature, without stirring, for 10 min. The absorption spectrum (from 250 to 425 nm) and luminescence spectrum (from 500 to 750 nm under 315 nm excitation) are recorded with a SpectraMax iD3 Multi-Mode Microplate Reader (Molecular Devices, Sunnyvale, Calif.).

A short description of data set [5]: Detection of GBCA in synthetic human urine by luminescence quenching assay. The following applies: GBCA increased up to 150 μM; 50% synthetic human urine, 50 mM MES pH 6.0. Here is the method: In this assay, 3,4,3-LI(1,2-HOPO) is added to the urine sample and, in the absence of GBCAs, 1,2-HOPO groups remain available to complex other metal species. Eu^3+ is then added, and its emission is sensitized (FIG. 3). In the presence of GBCAs, however, 1,2-HOPO units acquire the Gd^3+ from the contrast agent because of their higher affinity for the metal compared to clinical ligands,^23 preventing the coordination of subsequently added Eu^3+. Thus, a drastic emission quenching is induced in presence of GBCAs.
Surine™ samples containing different amounts of GBCA are diluted down to 50% with MES solution (final concentration 50 mM, pH 6.0). 2 μL 3,4,3-LI(1,2-HOPO) (1 mM) are added to each solution, mixed for 10 s, and left to incubate at room temperature, without stirring for 10 min. 2 μL EuCl3 (1 mM) are added, mixed for 10 s and left undisturbed for 10 min before recording emission spectra from 500 to 700 nm under 315 nm excitation with a SpectraMax iD3 Multi-Mode Microplate Reader.
The limit of detection is calculated as: […]
Where ILOD is the assay response intensity at the limit of detection, Iblank is the response intensity of the blank, and σblank is the standard deviation for the blank signal.

As for `CNC[C@H](O)[C@@H](O)[C@H](O)[C@H](O)CO.CNC[C@H](O)[C@@H](O)[C@H](O)[C@H](O)CO.O=C([O-])CN(CCN(CC(=O)[O-])CC(=O)O)CCN(CC(=O)O)C(COCc1ccccc1)C(=O)[O-].[Gd+3]` (stereo not shown) [Multihance, gadobenate dimeglumine], in data set [1], the “[GBCA] in assay solution” value turned out to be 86 ± 9 µM; the “[GBCA] in original sample” value was found to be 0.017 ± 0.004 M; the “GBCA concentration in mouse urine, Luminescence assay” value is given as 0.017 ± 0.004 M. The “GBCA concentration in mouse urine, ICP-OES” value (shortened to “GBCA concentration … ICP-OES”) in data set [2] is 0.015 ± 0.000 M.
Regarding `O.O.O.O.O.O.[Cl-].[Cl-].[Cl-].[Gd+3]` [Gd^3+, gadolinium (III) chloride hexahydrate], the “quenching of 20 μM Eu^3+-3,4,3-LI(1,2-HOPO) emission” value in data set [3] was 71±1%.
Regarding Eu^3+-3,4,3-LI(1,2-HOPO), in data set [4] (20 μM, 0 to 100% artificial human urine (Surine), 315 nm excitation), the “effect of urine on emission” value is on record as “not affected by urine”.
Consider `CNC(=O)CN(CCN(CCN(CC(=O)[O-])CC(=O)NC)CC(=O)[O-])CC(=O)[O-].[Gd+3]` [Omnsican, gadodiamide], for which, in data set [1], the “[GBCA] in assay solution” value was determined as 101 ± 3 µM; the “[GBCA] in original sample” value stood at 0.020 ± 0.001 M; the “GBCA concentration in mouse urine, Luminescence assay” value was 0.020 ± 0.001 M. The “GBCA concentration … ICP-OES” value in data set [2] is given as 0.024 ± 0.000 M.
With `O=C(NCCCN(CCCCN(CCCNC(=O)c1cccc(=O)n1O)C(=O)c1cccc(=O)n1O)C(=O)c1cccc(=O)n1O)c1cccc(=O)n1O` [3,4,3-LI(1,2-HOPO)], in data set [4] (urine), the stability in urine entry is recorded as “stable in urine”.
Consider `CNC[C@H](O)[C@@H](O)[C@H](O)[C@H](O)CO.CNC[C@H](O)[C@@H](O)[C@H](O)[C@H](O)CO.O=C([O-])CN(CCN(CC(=O)[O-])CC(=O)O)CCN(CC(=O)[O-])CC(=O)O.[Gd+3]` [Magnevist, gadopentetate dimeglumine], for which, in data set [1], the “[GBCA] in assay solution” value amounted to 101 ± 13 µM; the “[GBCA] in original sample” value was 0.020 ± 0.005 M; the “GBCA concentration in mouse urine, Luminescence assay” value is on record as 0.020 ± 0.005 M. In addition, the “GBCA concentration … ICP-OES” value in data set [2] is listed as 0.018 ± 0.000 M. Further, the “decrease of luminescence of the assay solution” value in data set [5] amounted to 75±1%.

Values taken from patent US20220373555A1, “Methods to detect or quantify a gadolinium-based contrast agent in a sample using a luminescent agent able to chelate a Gd3+ cation” (THE REGENTS OF THE UNIVERSITY OF CALIFORNIA, priority 2021, published 2022).
